Values of other authors in publication PMC2874326 (Bioconjugate chemistry, 2010).

Tested on: cells
Conditions: relative to Tat and unmodified poly-arginine cell penetrating peptides

With C14-βAla-(Arg)7-Cys(SH)-NH2 [MPAP] as the substance, how does the “enhancement of peptide entry into cells by myristoylation” value read?
Its value is “several-fold”.
